Drawing on PubChem BioAssay AID1259407 (Chemical Carcinogenesis Research Information System (CCRIS), 2018), this text covers mutagenic call for three molecules.

SMILES strings stand for the structures. Active and inactive are the calls of the source. How the calls were made is not given here.

For the data set, the system named is CCRIS mutagenicity, Ames/micronucleus/aberration tests. The experiment in a line: CCRIS mutagenicity studies.
[1] abbreviates: Test System: AMES SALMONELLA TYPHIMURIUM, Strain/Indicator: TA98, Metabolic Activation: HAMSTER, LIVER, S-9, AROCLOR 1254 (10%), Method: PREINCUBATION
Setting [2] is: Test System: AMES SALMONELLA TYPHIMURIUM, Strain/Indicator: TA98, Metabolic Activation: NONE, Method: PREINCUBATION
[3] abbreviates: Test System: AMES SALMONELLA TYPHIMURIUM, Strain/Indicator: TA98, Metabolic Activation: RAT, LIVER, S-9, AROCLOR 1254 (10%), Method: PREINCUBATION
The mark [4] stands for this setting: Test System: AMES SALMONELLA TYPHIMURIUM, Strain/Indicator: TA100, Metabolic Activation: HAMSTER, LIVER, S-9, AROCLOR 1254 (10%), Method: PREINCUBATION
Setting [5] is: Test System: AMES SALMONELLA TYPHIMURIUM, Strain/Indicator: TA100, Metabolic Activation: NONE, Method: PREINCUBATION
The mark [6] stands for this setting: Test System: AMES SALMONELLA TYPHIMURIUM, Strain/Indicator: TA100, Metabolic Activation: RAT, LIVER, S-9, AROCLOR 1254 (10%), Method: PREINCUBATION
Setting [7] is: Test System: AMES SALMONELLA TYPHIMURIUM, Strain/Indicator: TA1535, Metabolic Activation: NONE, Method: PREINCUBATION
Setting [8] is: Test System: AMES SALMONELLA TYPHIMURIUM, Strain/Indicator: TA1537, Metabolic Activation: HAMSTER, LIVER, S-9, AROCLOR 1254 (10%), Method: PREINCUBATION
[9] abbreviates: Test System: AMES SALMONELLA TYPHIMURIUM, Strain/Indicator: TA1537, Metabolic Activation: NONE, Method: PREINCUBATION
Where [10] appears, read: Test System: AMES SALMONELLA TYPHIMURIUM, Strain/Indicator: TA1537, Metabolic Activation: RAT, LIVER, S-9, AROCLOR 1254 (10%), Method: PREINCUBATION

Consider `Cc1cccc(C)c1N`, for which the mutagenic call is, setting by setting: (End Point: IN VITRO CHROMOSOMAL ABERRATIONS, Test System: CHINESE HAMSTER OVARY CELLS, Metabolic Activation: NONE) “active; positive; precipitation occurred at all doses”; (End Point: IN VITRO CHROMOSOMAL ABERRATIONS, Test System: CHINESE HAMSTER OVARY CELLS, Metabolic Activation: RAT, LIVER, S-9, AROCLOR 1254) “active; positive; precipitation occurred at 1200 and 1300 ug/ml”; (Test System: AMES SALMONELLA TYPHIMURIUM, Strain/Indicator: TA97, Metabolic Activation: HAMSTER, LIVER, S-9, AROCLOR 1254 (30%), Method: PREINCUBATION) “inactive; negative”; (Test System: AMES SALMONELLA TYPHIMURIUM, Strain/Indicator: TA97, Metabolic Activation: NONE, Method: PREINCUBATION) “inactive; negative”; (Test System: AMES SALMONELLA TYPHIMURIUM, Strain/Indicator: TA97, Metabolic Activation: RAT, LIVER, S-9, AROCLOR 1254 (30%), Method: PREINCUBATION) “inactive; negative”; under setting [1], “inactive; negative”. Besides, the mutagenic call by setting is: (Test System: AMES SALMONELLA TYPHIMURIUM, Strain/Indicator: TA98, Metabolic Activation: HAMSTER, LIVER, S-9, AROCLOR 1254 (30%), Method: PREINCUBATION) “inactive; negative”; (Test System: AMES SALMONELLA TYPHIMURIUM, Strain/Indicator: TA98, Metabolic Activation: HAMSTER, LIVER, S-9, AROCLOR 1254, Method: PREINCUBATION) “inactive; negative”; under setting [2], “inactive; negative”; under setting [3], “inactive; negative”; (Test System: AMES SALMONELLA TYPHIMURIUM, Strain/Indicator: TA98, Metabolic Activation: RAT, LIVER, S-9, AROCLOR 1254 (30%), Method: PREINCUBATION) “inactive; negative”; (Test System: AMES SALMONELLA TYPHIMURIUM, Strain/Indicator: TA98, Metabolic Activation: RAT, LIVER, S-9, AROCLOR 1254, Method: PREINCUBATION) “inactive; negative”. Besides, the mutagenic call (Test System: AMES SALMONELLA TYPHIMURIUM, Strain/Indicator: TA100, Metabolic Activation: HAMSTER, LIVER, S-9, AROCLOR 1254 (5%), Method: PREINCUBATION) was “inactive; negative”; the mutagenic call under setting [4] was “inactive; negative”; the mutagenic call (Test System: AMES SALMONELLA TYPHIMURIUM, Strain/Indicator: TA100, Metabolic Activation: HAMSTER, LIVER, S-9, AROCLOR 1254, Method: PREINCUBATION) was “inactive; negative”; the mutagenic call under setting [5] was “inactive; negative”; the mutagenic call (Test System: AMES SALMONELLA TYPHIMURIUM, Strain/Indicator: TA100, Metabolic Activation: RAT, LIVER, S-9, AROCLOR 1254 (5 OR 30%), Method: PREINCUBATION) was “inactive; negative”; the mutagenic call under setting [6] is “inactive; negative”. The mutagenic call runs as follows: (Test System: AMES SALMONELLA TYPHIMURIUM, Strain/Indicator: TA100, Metabolic Activation: RAT, LIVER, S-9, AROCLOR 1254, Method: PREINCUBATION) “inactive; negative”; (Test System: AMES SALMONELLA TYPHIMURIUM, Strain/Indicator: TA1535, Metabolic Activation: HAMSTER, LIVER, S-9, AROCLOR 1254 (5%), Method: PREINCUBATION) “inactive; negative”; (Test System: AMES SALMONELLA TYPHIMURIUM, Strain/Indicator: TA1535, Metabolic Activation: HAMSTER, LIVER, S-9, AROCLOR 1254, Method: PREINCUBATION) “inactive; negative”; under setting [7], “inactive; negative”; (Test System: AMES SALMONELLA TYPHIMURIUM, Strain/Indicator: TA1535, Metabolic Activation: RAT, LIVER, S-9, AROCLOR 1254 (5%), Method: PREINCUBATION) “inactive; negative”; (Test System: AMES SALMONELLA TYPHIMURIUM, Strain/Indicator: TA1535, Metabolic Activation: RAT, LIVER, S-9, AROCLOR 1254 (10 OR 30%), Method: PREINCUBATION) “inactive; negative”. Besides, the mutagenic call (Test System: AMES SALMONELLA TYPHIMURIUM, Strain/Indicator: TA1535, Metabolic Activation: RAT, LIVER, S-9, AROCLOR 1254, Method: PREINCUBATION) is “inactive; negative”; the mutagenic call under setting [8] is “inactive; negative”; the mutagenic call (Test System: AMES SALMONELLA TYPHIMURIUM, Strain/Indicator: TA1537, Metabolic Activation: HAMSTER, LIVER, S-9, AROCLOR 1254, Method: PREINCUBATION) is “inactive; negative”; the mutagenic call under setting [9] was “inactive; negative”; the mutagenic call under setting [10] is “inactive; negative”; the mutagenic call (Test System: AMES SALMONELLA TYPHIMURIUM, Strain/Indicator: TA1537, Metabolic Activation: RAT, LIVER, S-9, AROCLOR 1254, Method: PREINCUBATION) is “inactive; negative”.

For the molecule `CC(C)CC(C)N` (stereo not given), the mutagenic call under setting [1] was “inactive; negative”; the mutagenic call under setting [2] was “inactive; negative”; the mutagenic call under setting [3] is “inactive; negative”; the mutagenic call under setting [4] was “inactive; negative”; the mutagenic call under setting [5] is “inactive; negative”; the mutagenic call under setting [6] was “inactive; negative”. In addition, the mutagenic call reads like this: (Test System: AMES SALMONELLA TYPHIMURIUM, Strain/Indicator: TA1535, Metabolic Activation: HAMSTER, LIVER, S-9, AROCLOR 1254 (10%), Method: PREINCUBATION) “inactive; negative”; under setting [7], “inactive; negative”; (Test System: AMES SALMONELLA TYPHIMURIUM, Strain/Indicator: TA1535, Metabolic Activation: RAT, LIVER, S-9, AROCLOR 1254 (10%), Method: PREINCUBATION) “inactive; negative”; under setting [8], “inactive; negative”; under setting [9], “inactive; negative”; under setting [10], “inactive; negative”.

For `ClC1C(Cl)C(Cl)C(Cl)C(Cl)C1Cl` (stereo not given), the mutagenic call (End Point: IN VITRO CHROMOSOMAL ABERRATIONS, Test System: HUMAN PERIPHERAL BLOOD LYMPHOCYTES, Metabolic Activation: NONE) is “active; positive (structural changes)”; the mutagenic call (Test System: AMES SALMONELLA TYPHIMURIUM, Strain/Indicator: TA97, Metabolic Activation: NONE, Method: STANDARD PLATE) is “inactive; negative”; the mutagenic call (Test System: AMES SALMONELLA TYPHIMURIUM, Strain/Indicator: TA97, Metabolic Activation: RAT, LIVER, S-9, AROCLOR 1254, Method: STANDARD PLATE) was “inactive; negative”; the mutagenic call (Test System: AMES SALMONELLA TYPHIMURIUM, Strain/Indicator: TA98, Metabolic Activation: NONE, Method: STANDARD PLATE) was “inactive; negative”; the mutagenic call (Test System: AMES SALMONELLA TYPHIMURIUM, Strain/Indicator: TA100, Metabolic Activation: NONE, Method: STANDARD PLATE) was “inactive; negative”; the mutagenic call (Test System: AMES SALMONELLA TYPHIMURIUM, Strain/Indicator: TA100, Metabolic Activation: RAT, LIVER, S-9, AROCLOR 1254, Method: STANDARD PLATE) is “inactive; negative”. Also, the mutagenic call was “inactive; negative” (Test System: AMES SALMONELLA TYPHIMURIUM, Strain/Indicator: TA102, Metabolic Activation: NONE, Method: STANDARD PLATE); “inactive; negative” (Test System: AMES SALMONELLA TYPHIMURIUM, Strain/Indicator: TA102, Metabolic Activation: RAT, LIVER, S-9, AROCLOR 1254, Method: STANDARD PLATE); “inactive; negative” (Test System: CHINESE HAMSTER OVARY, Strain/Indicator: CHO (HPRT)/6-THIOGUANINE, Metabolic Activation: NONE); “inactive; negative” (Test System: CHINESE HAMSTER OVARY, Strain/Indicator: CHO (HPRT)/6-THIOGUANINE, Metabolic Activation: S-9); “inactive; negative” (Test System: UDS HUMAN HEPATOCYTES, Strain/Indicator: THY INCORP, Metabolic Activation: NONE, Method: AUTORADIOGRAPHY); “inactive; negative” (Test System: UDS MOUSE HEPATOCYTES, Strain/Indicator: THY INCORP, Metabolic Activation: NONE, Method: AUTORADIOGRAPHY). For the same molecule, the mutagenic call (Test System: UDS RAT HEPATOCYTES, Strain/Indicator: THY INCORP, Metabolic Activation: NONE, Method: AUTORADIOGRAPHY) is “inactive; negative”.
